Holding throughout (experiment): inhibition of tumour cell growth, NCI panel, 48 h
Experiment [1] relates to IGROV1 ovarian.
Experiment [2] concerns SK-MEL-28 melanoma.
Experiment [3] concerns RPMI-8226 leukemia.
Experiment [4] relates to 786-0 renal.
The subject of experiment [5] is M14 melanoma.
Experiment [6] concerns HT29 colon.
In experiment [7] the test system is NCI/ADR-RES ovarian.
The test system of experiment [8] is A549 NSCLC.
In experiment [9] the test system is SN12C renal.
The subject of experiment [10] is MOLT-4 leukemia.
The subject of experiment [11] is OVCAR-8 ovarian.
For experiment [12], the system named is UACC-257 melanoma.
Experiment [13] deals with CCRF-CEM leukemia.
The test system of experiment [14] is T-47D breast.
Experiment [15] relates to ACHN renal.
The test system of experiment [16] is OVCAR-5 ovarian.
Experiment [17] has as its system SW-620 colon.
The subject of experiment [18] is K-562 leukemia.
Experiment [19] concerns NCI-H460 lung.
The test system of experiment [20] is TK-10 renal.

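Five compound concentrations were applied to cells in 96-well plates for 48 hours; endpoints were derived by simple linear interpolation of the resulting dose-response curve. TGI: concentration producing complete growth inhibition.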

Take `ClCCN1CCOC1=Nc1ccc2c(c1)CCCC2`: the TGI in [1] came to 24.8 µM; in experiment [2] it was 39.1 µM; in experiment [3], 26.2 µM; in experiment [4], 35.3 µM; in experiment [5] it was 33 µM; in experiment [6], 33.1 µM. For the same compound, the TGI was found to be 51.9 µM in experiment [7]; 57.5 µM in experiment [8]; 27 µM in experiment [9]; 39.9 µM in experiment [10]; 17.3 µM in experiment [11]; 13.2 µM in [12]. Moreover, the TGI was 35.7 µM in experiment [13]; 41.1 µM in experiment [14]; 28.1 µM in experiment [15]; 32.4 µM in experiment [16]; 61.2 µM in [17]; more than 100 µM in experiment [18]. For the same compound, in [19], the TGI is 61.8 µM.
For `COC(=O)Nc1nc2ccc(S(=O)(=O)n3nnc4ccccc43)cc2[nH]1`, the TGI in [1], in experiment [2], in [3], in [4], in experiment [5] and in experiment [6] was more than 100 µM each time. Also, the TGI is more than 100 µM in [7]; more than 100 µM in experiment [8]; more than 100 µM in experiment [9]; more than 100 µM in experiment [10]; more than 100 µM in experiment [11]; 43.9 µM in experiment [12]. The TGI in [13], in experiment [14], in [15], in [16], in [17] and in experiment [18] was more than 100 µM throughout. Besides, in experiment [19], the TGI is more than 100 µM.
As for `O=C(c1ccc2ccccc2c1)N(Cc1cccnc1)C(=S)N(Cc1cccnc1)C(=O)c1ccc2ccccc2c1`, the TGI in [2] is more than 100 µM; in experiment [3], more than 100 µM; in [4], 73.4 µM; in experiment [5] it was 55 µM; in experiment [6], 81.2 µM; in [7], 88.7 µM. Moreover, the TGI in experiment [20] is 78.9 µM; in experiment [8], more than 100 µM; in experiment [9] it was more than 100 µM; in experiment [10] it was more than 100 µM; in [11], 66.5 µM; in experiment [12] it was 48.7 µM. Also, the TGI is more than 100 µM in [13]; 65.8 µM in experiment [14]; more than 100 µM in experiment [15]; more than 100 µM in [16]; more than 100 µM in [17]; more than 100 µM in experiment [18]. The compound further came in with a TGI in [19] of 95.7 µM.
On to `O=C1c2ccccc2-c2c1c(-c1ccc([N+](=O)[O-])cc1)nc1ccc3ccccc3c21`, for which the TGI in experiment [2], in experiment [3], in experiment [4], in experiment [5], in experiment [6] and in experiment [7] was more than 100 µM in each case. Also, the TGI in [8], in experiment [9], in experiment [10], in experiment [11], in experiment [12] and in [13] was more than 100 µM each time. Also, the TGI in experiment [14], in [15], in [16], in [17], in experiment [18] and in experiment [19] was more than 100 µM in each case.
For the compound `N#Cc1nc(COCc2ccccc2)oc1N`, the TGI in [1], in [2], in [3], in [4], in experiment [5] and in experiment [6] was more than 100 µM throughout. The TGI in [7], in experiment [20], in [8], in experiment [9], in [10] and in [11] was more than 100 µM in each case. Also, the TGI in experiment [12], in experiment [13], in [14], in experiment [15], in experiment [16] and in experiment [17] was more than 100 µM each time. In addition, the TGI in [18] was more than 100 µM.
As for `COC(=O)[C@]12CSC[C@H]1C[C@H](c1ccccc1OC)N2`, the TGI in experiment [1], in experiment [2], in experiment [3], in experiment [4], in experiment [5] and in experiment [7] was more than 100 µM in each case. For the same compound, the TGI in [20], in experiment [8], in [9], in [10], in experiment [11] and in experiment [12] was more than 100 µM each time. Further, the TGI in [13], in experiment [14], in experiment [15], in experiment [16], in [17] and in experiment [18] was more than 100 µM throughout. For the same compound, the TGI in [19] is more than 100 µM.
Regarding `c1ccc(C2SCc3nc4cc5ccccc5cc4n32)cc1` (stereo not drawn), the TGI in experiment [1], in experiment [2], in experiment [3], in [4], in [5] and in experiment [6] was more than 100 µM in each case. For the same compound, the TGI in [7], in experiment [20], in experiment [8], in experiment [9], in [10] and in experiment [11] was more than 100 µM in each case. Further, the TGI in [12], in experiment [13], in experiment [14], in experiment [15], in [16] and in experiment [17] was more than 100 µM throughout. The same compound displayed a TGI in experiment [18] of more than 100 µM.
Consider `Cc1cnc(-c2c[nH]c3ccccc23)nc1-c1c[nH]c2ccccc12`, for which the TGI in [1] is 14.8 µM; in experiment [3], more than 100 µM; in experiment [4] it was 10.7 µM; in [5], 16.4 µM; in [6], 14.7 µM; in [7], more than 100 µM. In addition, the TGI in experiment [20] amounted to 18.1 µM; in experiment [8] it was 20.2 µM; in [9], 8.53 µM; in experiment [10], 28.4 µM; in experiment [11], 22.7 µM; in experiment [12] it was 20.5 µM. The TGI is 4.92 µM in [13]; 9.15 µM in experiment [14]; 10 µM in experiment [15]; 20.9 µM in [16]; 30.2 µM in experiment [17]; 26 µM in [18]. The compound further yielded a TGI in [19] of 14.8 µM.
For `CCOC(=O)C(NCc1ccc2c(c1)OCO2)(NC(=O)c1ccccc1)C(F)(F)F` (stereo not drawn), the TGI in experiment [1], in experiment [2], in experiment [3], in [4], in experiment [5] and in [6] was more than 100 µM throughout. In addition, the TGI in experiment [7] is more than 100 µM; in experiment [20] it was more than 100 µM; in experiment [8], more than 100 µM; in [9], more than 100 µM; in [10], 50.8 µM; in experiment [11] it was more than 100 µM. Also, the TGI in [12] was more than 100 µM; in experiment [13] it was 67.8 µM; in experiment [14], more than 100 µM; in experiment [15], more than 100 µM; in [16], more than 100 µM; in experiment [17], more than 100 µM. This compound showed a TGI in experiment [18] of more than 100 µM.
Turning to `CCN(CC)CCCNc1nc(=O)[nH]c(C)c1C(=O)Nc1c2ccccc2nc2ccccc12`, the TGI is 72.6 µM in [1]; more than 100 µM in experiment [2]; 47.4 µM in experiment [3]; 32.6 µM in [4]; more than 100 µM in [5]; 26.2 µM in experiment [6]. For the same compound, the TGI in experiment [7] was 45.7 µM; in experiment [20] it was more than 100 µM; in [8], 44.2 µM; in experiment [9], more than 100 µM; in experiment [10], more than 100 µM; in experiment [11], 59.1 µM. Besides, the TGI in [12] was 54.5 µM; in experiment [13] it was more than 100 µM; in [14], 73.5 µM; in [15], 57.4 µM; in experiment [16], more than 100 µM; in experiment [17], more than 100 µM. Also, the TGI in [18] was more than 100 µM.
Regarding `COC(=O)C1C(OC(=O)C(Cl)(c2ccccc2)c2ccccc2)CC2CCC1N2C` (stereo not drawn), the TGI in experiment [1], in experiment [2], in experiment [3], in [4], in experiment [5] and in experiment [6] was more than 100 µM throughout. The TGI in [7], in experiment [20], in experiment [8], in experiment [9], in experiment [10] and in experiment [11] was more than 100 µM each time. The TGI in experiment [12], in experiment [13], in experiment [14], in [15], in [16] and in experiment [17] was more than 100 µM throughout. This compound gave a TGI in experiment [18] of more than 100 µM.

For the origin of these results see PubChem BioAssay (NCI).
